Results reported in PubChem BioAssay (NCI).
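1) Cells in 96-well plates. 2) Compound, 48 h, 5 concentrations. 3) Linear interpolation between surrounding doses. 4) Unreached endpoint = highest concentration. Abbreviation: GI50, concentration required for 50% inhibition of growth. At the TGI there is no net growth.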

Experiments:
Assay in all cases: growth of human tumour cells (NCI), 48 h
MCF7 breast = tested on: MCF7 breast
OVCAR-8 ovarian = tested on: OVCAR-8 ovarian
NCI-H226 lung = tested on: NCI-H226 lung
NCI/ADR-RES ovarian = tested on: NCI/ADR-RES ovarian
K-562 leukemia = tested on: K-562 leukemia
UO-31 renal = tested on: UO-31 renal
786-0 renal = tested on: 786-0 renal
MDA-MB-231 breast = tested on: MDA-MB-231 breast
HCT-116 colon = tested on: HCT-116 colon
SK-MEL-5 melanoma = tested on: SK-MEL-5 melanoma
A498 renal = tested on: A498 renal
UACC-257 melanoma = tested on: UACC-257 melanoma
TK-10 renal = tested on: TK-10 renal
OVCAR-4 ovarian = tested on: OVCAR-4 ovarian
MDA-MB-435 = tested on: MDA-MB-435
SNB-75 CNS = tested on: SNB-75 CNS
U251 CNS = tested on: U251 CNS
CAKI-1 renal = tested on: CAKI-1 renal
EKVX NSCLC = tested on: EKVX NSCLC
BT-549 breast = tested on: BT-549 breast
MOLT-4 leukemia = tested on: MOLT-4 leukemia
SK-OV-3 ovarian = tested on: SK-OV-3 ovarian
KM12 colon = tested on: KM12 colon
NCI-H460 lung = tested on: NCI-H460 lung
COLO 205 colon = tested on: COLO 205 colon
A549 NSCLC = tested on: A549 NSCLC

## Nc1nc(N)c2c(n1)NC(c1ccc(Cl)cc1)CC(c1ccc(Nc3nc(NCCO)nc(Nc4ccc(Cl)cc4)n3)cc1)=N2 (stereo unspecified)
MCF7 breast
  GI50: 1.2 µM
  TGI: 2.57 µM
OVCAR-8 ovarian
  GI50: 1.57 µM
  TGI: 3.27 µM
NCI-H226 lung
  GI50: 6.47 µM
  TGI: 29.8 µM
NCI/ADR-RES ovarian
  GI50: 4.24 µM
  TGI: > 100 µM
K-562 leukemia
  GI50: 0.713 µM
  TGI: 3.2 µM
UO-31 renal
  GI50: 3.1 µM
  TGI: 15.3 µM
786-0 renal
  GI50: 1.55 µM
  TGI: 3.04 µM
MDA-MB-231 breast
  GI50: 1.75 µM
  TGI: 3.92 µM
HCT-116 colon
  GI50: 1.4 µM
  TGI: 2.69 µM
SK-MEL-5 melanoma
  GI50: 1.48 µM
  TGI: 2.8 µM
A498 renal
  GI50: 5.9 µM
  TGI: 19.8 µM
UACC-257 melanoma
  GI50: 1.91 µM
  TGI: 3.74 µM
TK-10 renal
  GI50: 10.6 µM
  TGI: 25.3 µM
OVCAR-4 ovarian
  GI50: 1.96 µM
  TGI: 5.04 µM
MDA-MB-435
  GI50: 1.63 µM
  TGI: 3.18 µM
SNB-75 CNS
  GI50: 1.59 µM
  TGI: 3.97 µM
U251 CNS
  GI50: 1.47 µM
  TGI: 2.92 µM
CAKI-1 renal
  GI50: 5.36 µM
  TGI: 28.2 µM
EKVX NSCLC
  GI50: 2.01 µM
  TGI: 6.88 µM
BT-549 breast
  GI50: 2.25 µM
  TGI: 5.89 µM
MOLT-4 leukemia
  GI50: 0.792 µM
  TGI: 3.92 µM
SK-OV-3 ovarian
  GI50: 14.8 µM
  TGI: 29.3 µM
KM12 colon
  GI50: 3.18 µM
  TGI: 10.3 µM
NCI-H460 lung
  GI50: 1.72 µM
  TGI: 3.32 µM
COLO 205 colon
  GI50: 1.51 µM
  TGI: 3.59 µM
A549 NSCLC
  GI50: 4.12 µM
